Results on one substance are retold here after patent publication US20050019260A1, “Animal model for allergy” (priority 2001, published 2005).

The test system of this assay is sheep mammary gland. Briefly: Single intramammary infusion of lipopolysaccharide, MAL cell collection. It is filed as in vivo.

In the case of lipopolysaccharide, the MAL cell influx result is “predominantly neutrophils” (24 h after single intramammary infusion) and “macrophage infiltration” (day 5 after single intramammary infusion).
